Assay [1] deals with T1, human E3 ubiquitin-protein ligase RNF31 (HOIP) (Homo sapiens, UniProt Q96EP0).
T1 sequence (Q96EP0 695-1072 limits assumed): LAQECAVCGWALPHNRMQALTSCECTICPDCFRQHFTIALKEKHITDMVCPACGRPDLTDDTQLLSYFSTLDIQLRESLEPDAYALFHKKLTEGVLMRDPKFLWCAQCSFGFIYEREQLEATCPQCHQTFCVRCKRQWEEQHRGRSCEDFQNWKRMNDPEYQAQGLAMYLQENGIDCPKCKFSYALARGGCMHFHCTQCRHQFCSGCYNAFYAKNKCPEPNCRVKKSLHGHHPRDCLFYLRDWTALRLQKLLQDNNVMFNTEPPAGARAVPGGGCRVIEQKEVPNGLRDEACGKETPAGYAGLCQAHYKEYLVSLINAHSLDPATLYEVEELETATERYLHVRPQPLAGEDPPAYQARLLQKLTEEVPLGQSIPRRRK
The assay can be described thus: Cell-free HTRF-based HOIP inhibition assay. The class given is biochemical. How it is done: This assay was performed in the following steps: • a) synthesis of recombinant fragment of human E3 ubiquitin-protein ligase RNF31 (HOIP), expressed with purity >90% in E. coli system (the protein was prepared as 1 mg/mL stock in a standard formulation); • b) incubation of the compounds in a typical concentration range: 100-0.005 μM, at a final DMSO conc. 1% with a mixture of HOIP and ubiquitin activating enzyme E1 at 25° C., for 1 h at 25° C.; • c) followed by addition of a ubiquitination solution including E2 and substrates (the reaction proceeds for 2.5 h at 25° C.); and • d) HTRF detection was performed using a PHERAstar FSX (BMG Labtech) plate reader (excitation at 337 nm, dual emissions at 665 and 620 nm).
Background: In TR-FRET formats the signal depends on donor and acceptor labels being close together.

The test system of assay [2] is bladder carcinoma RT4 cell line. Kind of assay: TNF-α-induced cytotoxicity assay (CellTiter-Glo viability). The class given is cell-based. Particulars: Homo sapiens, RT-4, 72 h. How it is done:
A viability assay, using bladder carcinoma RT4 cell line, was used for identifying the potential inhibitory effect of tested compounds on HOIP activity. The viability was determined by CellTiter-Glo Luminescent Cell Viability Assay (G7571, Promega) which measures the ability of generating a luminescent signal proportional to the amount of ATP present in living cells. The assay consists of a few steps: • a) the cells were routinely sub cultivated twice a week with standard complete growth medium composition; • b) cells were preparated for the assay by creating a cell suspension at the density of 0.05 mln cells/mL and dispensed into plates (ViewPlate-384, PerkinElmer) resulting in 1000 cells/well; • c) cells were stimulated with 1.25 ng/mL TNFα and with compounds and incubated for 72 h at 37° C. in the atmosphere with 5% CO2; and • d) for detection cytotoxicity was measured with CellTiter-Glo® Luminescent Cell Viability Assay based on the method described by the manufacturer.
For orientation: In ATP-based viability assays light output follows the ATP content of the culture.

Turning to `N=S(=O)(/C=C/CNC(=O)c1cc2c([nH]c1=O)CCCC2)c1ccc(-c2ccccc2)cc1` (stereo not drawn) [Example 156, N-[(2E)-3-({[1,1′-biphenyl]-4-yl}(imino)oxo-λ^6-sulfanyl)prop-2-en-1-yl]-2-oxo-1,2,5,6,7,8-hexahydroquinoline-3-carboxamide], the IC50 (as a rule, the point on the concentration scale where inhibition reaches its midpoint) in assay [1] was at most 100 nM; in assay [2], at most 1000 nM.
Taken in the same sequence, the figures for `COc1ccc(S(=N)(=O)/C=C/CNC(=O)c2cc3cccnc3[nH]c2=O)cc1F` (stereo not drawn) [Example 158, N-[(2E)-3-[(3-fluoro-4-methoxyphenyl)(imino)oxo-λ^6-sulfanyl]prop-2-en-1-yl]-2-oxo-1,2-dihydro-1,8-naphthyridine-3-carboxamide] were at most 1000 nM and at most 10000 nM.
Taken in the same sequence, the figures for `COc1ccc(S(=N)(=O)/C=C/CNC(=O)c2cc3cnccc3[nH]c2=O)cc1F` (stereo not drawn) [Example 159, N-[(2E)-3-[(3-fluoro-4-methoxyphenyl)(imino)oxo-λ^6-sulfanyl]prop-2-en-1-yl]-2-oxo-1,2-dihydro-1,6-naphthyridine-3-carboxamide] were at most 1000 nM and at most 100000 nM.
Consider `N=S(=O)(/C=C/CNC(=O)c1cc2c([nH]c1=O)CCCC2)c1ccc(N2CCOCC2)cc1` (stereo not drawn) [Example 160, N-[(2E)-3-{imino[4-(morpholin-4-yl)phenyl]oxo-λ^6-sulfanyl}prop-2-en-1-yl]-2-oxo-1,2,5,6,7,8-hexahydroquinoline-3-carboxamide], for which the IC50 in assay [1] and in assay [2] was at most 1000 nM in each case.
For `N=S(=O)(/C=C/CNC(=O)c1cc2c([nH]c1=O)CCCC2)c1ccc(N2CCCC2)cc1` (stereo not drawn) [Example 162, N-[(2E)-3-[imino(oxo)[4-(Pyrrolidin-1-yl)phenyl]-λ^6-sulfanyl]prop-2-en-1-yl]-2-oxo-1,2,5,6,7,8-hexahydroquinoline-3-carboxamide], the figures for the IC50 in assay [1] and in assay [2] were at most 100 nM and at most 1000 nM, respectively.
Taken in the same sequence, the figures for `CC(=O)Nc1ccc(S(=N)(=O)/C=C/CNC(=O)c2cc3c([nH]c2=O)CCCC3)cc1` (stereo not drawn) [Example 163, N-[(2E)-3-[(4-acetamidophenyl)(imino)oxo-λ^6-sulfanyl]prop-2-en-1-yl]-2-oxo-1,2,5,6,7,8-hexahydroquinoline-3-carboxamide] were at most 1000 nM and at most 100000 nM.
For the compound `N=S(=O)(/C=C/CNC(=O)c1cc2c([nH]c1=O)CCCC2)c1ccc(OC2CC2)cc1` (stereo not drawn) [Example 164, N-[(2E)-3-[(4-cyclopropoxyphenyl)(imino)oxo-λ^6-sulfanyl]prop-2-en-1-yl]-2-oxo-1,2,5,6,7,8-hexahydroquinoline-3-carboxamide], the IC50 was at most 100 nM in assay [1] and at most 1000 nM in assay [2].
Taken in the same sequence, the figures for `CN(C)c1cccc(S(=N)(=O)/C=C/CNC(=O)c2cc3c([nH]c2=O)CCCC3)c1` (stereo not drawn) [Example 165, N-[(2E)-3-{[3-(dimethylamino)phenyl](imino)oxo-λ^6-sulfanyl}prop-2-en-1-yl]-2-oxo-1,2,5,6,7,8-hexahydroquinoline-3-carboxamide] were at most 1000 nM and at most 1000 nM.
Taken in the same sequence, the figures for `N=S(=O)(/C=C/CNC(=O)c1cc2c([nH]c1=O)CCCC2)c1ccc(C2CCCCC2)cc1` (stereo not drawn) [Example 166, N-[(2E)-3-[(4-cyclohexylphenyl)(imino)oxo-λ^6-sulfanyl]prop-2-en-1-yl]-2-oxo-1,2,5,6,7,8-hexahydroquinoline-3-carboxamide] were at most 100 nM and at most 1000 nM.
Taken in the same sequence, the figures for `N=S(=O)(/C=C/CNC(=O)c1cc2c([nH]c1=O)CCCC2)c1ccc2c(c1)CCO2` (stereo not drawn) [Example 167, N-[(2E)-3-[(2,3-dihydro-1-benzofuran-5-yl)(imino)oxo-λ^6-sulfanyl]Prop-2-en-1-yl]-2-oxo-1,2,5,6,7,8-hexahydroquinoline-3-carboxamide] were at most 1000 nM and at most 1000 nM.
As for `N=S(=O)(/C=C/CNC(=O)c1cc2c([nH]c1=O)CCCC2)c1cccc(OC(F)(F)F)c1` (stereo not drawn) [Example 168, N-[(2E)-3-[imino(oxo)[3-(trifluoromethoxy)phenyl]-λ^6-sulfanyl]prop-2-en-1-yl]-2-oxo-1,2,5,6,7,8-hexahydroquinoline-3-carboxamide], the IC50 in assay [1] was at most 100 nM; in assay [2] it was at most 1000 nM.
Taken in the same sequence, the figures for `COc1ccc(CN2CCc3[nH]c(=O)c(C(=O)NC/C=C/S(=N)(=O)c4ccc(OC)c(F)c4)cc3C2)cc1` (stereo not drawn) [Example 171, N-[(2E)-3-[(3-fluoro-4-methoxyphenyl)(imino)oxo-λ^6-sulfanyl]prop-2-en-1-yl]-6-[(4-methoxyphenyl)methyl]-2-oxo-1,2,5,6,7,8-hexahydro-1,6-naphthyridine-3-carboxamide] were at most 1000 nM and at most 1000 nM.
In the case of `COc1ccc(S(=N)(=O)/C=C/CNC(=O)c2cc3c([nH]c2=O)CCC(F)C3)cc1F` (stereo not drawn) [Example 172, 6-fluoro-N-[(2E)-3-[(3-fluoro-4-methoxyphenyl)(imino)oxo-λ^6-sulfanyl]prop-2-en-1-yl]-2-oxo-1,2,5,6,7,8-hexahydroquinoline-3-carboxamide], the IC50 in assay [1] is at most 1000 nM; in assay [2], at most 10000 nM.
Regarding `N#Cc1cc(S(=N)(=O)/C=C/CNC(=O)c2cc3c([nH]c2=O)CCCC3)ccc1N1CCCCC1` (stereo not drawn) [Example 173, N-[(2E)-3-{[3-cyano-4-(piperidin-1-yl)phenyl](imino)oxo-λ^6-sulfanyl}prop-2-en-1-yl]-2-oxo-1,2,5,6,7,8-hexahydroquinoline-3-carboxamide], the IC50 is at most 100 nM in assay [1] and at most 1000 nM in assay [2].
Taken in the same sequence, the figures for `CNc1ccc(S(=N)(=O)/C=C/CNC(=O)c2cc3c([nH]c2=O)CCCC3)cc1` (stereo not drawn) [Example 174, N-[(2E)-3-{imino[4-(methylamino)phenyl]oxo-λ^6-sulfanyl}prop-2-en-1-yl]-2-oxo-1,2,5,6,7,8-hexahydroquinoline-3-carboxamide] were at most 1000 nM and at most 1000 nM.
Taken in the same sequence, the figures for `N#Cc1cc(S(=N)(=O)/C=C/CNC(=O)c2cc3c([nH]c2=O)CCCC3)ccc1N1CCOCC1` (stereo not drawn) [Example 175, N-[(2E)-3-{[3-cyano-4-(morpholin-4-yl)phenyl](imino)oxo-λ^6-sulfanyl}prop-2-en-1-yl]-2-oxo-1,2,5,6,7,8-hexahydroquinoline-3-carboxamide] were at most 100 nM and at most 10000 nM.
Taken in the same sequence, the figures for `CN1CCCc2cc(S(=N)(=O)/C=C/CNC(=O)c3cc4c([nH]c3=O)CCCC4)ccc21` (stereo not drawn) [Example 177, N-[(2E)-3-[imino(1-methyl-1,2,3,4-tetrahydroquinolin-6-yl)oxo-A*-sulfanyl]prop-2-en-1-yl]-2-oxo-1,2,5,6,7,8-hexahydroquinoline-3-carboxamide] were at most 100 nM and at most 1000 nM.
Take `COc1ccc(S(=N)(=O)/C=C/CNC(=O)c2cc3c([nH]c2=O)CCN(C(=O)OC2CCC(F)(F)CC2)C3)cc1F` (stereo not drawn) [Example 183, 4,4-difluorocyclohexyl 3-{[(2E)-3-[(3-fluoro-4-methoxyphenyl) (imino)oxo-λ^6-sulfanyl]prop-2-en-1-yl]carbamoyl}-2-oxo-1,2,5,6,7,8-hexahydro-1,6-naphthyridine-6-carboxylate]: the results for the IC50 in assay [1] and in assay [2] were at most 100 nM and at most 10000 nM, respectively.
With `COc1ccc(S(=N)(=O)/C=C/CNC(=O)c2cc3c([nH]c2=O)CCN(C(=O)OC2CCCCC2)C3)cc1F` (stereo not drawn) [Example 184, cyclohexyl 3-{[(2E)-3-[(3-fluoro-4-methoxyphenyl)(imino)oxo-λ^6-sulfanyl]prop-2-en-1-yl]carbamoyl}-2-oxo-1,2,5,6,7,8-hexahydro-1,6-naphthyridine-6-carboxylate], the IC50 is at most 100 nM in assay [1] and at most 1000 nM in assay [2].
Consider `COc1ccc(S(=N)(=O)/C=C/CNC(=O)c2cc3c([nH]c2=O)CCN(CC2CC2)C3)cc1F` (stereo not drawn) [Example 185, 6-(cyclopropylmethyl)-N-[(2E)-3-[(3-fluoro-4-methoxyphenyl) (imino)oxo-λ^6-sulfanyl]prop-2-en-1-yl]-2-oxo-1,2,5,6,7,8-hexahydro-1,6-naphthyridine-3-carboxamide], for which the IC50 was at most 10000 nM in assay [1] and at most 100000 nM in assay [2].
As for `COc1ccc(S(=N)(=O)/C=C/CNC(=O)c2ccc[nH]c2=O)cc1F` (stereo not drawn) [Example 186, N-[(2E)-3-[(3-fluoro-4-methoxyphenyl)(imino)oxo-λ^6-sulfanyl]prop-2-en-1-yl]-2-oxo-1,2-dihydropyridine-3-carboxamide], the IC50 in assay [1] is at most 1000 nM; in assay [2], at most 10000 nM.

(Values after patent US20260250250A1, “3-(SULPHONYL OR SULFONIMIDOYL)PROP-2-EN-1-YL]-2-OXO-1,2-DIHYDROPYRIDINE-3-CARBOXAMIDE DERIVATIVES” (Flinder Therapeutics B.V., priority 2022, published 2026).)
